Data published in US10647713B2 (Nimbus Lakshmi, Inc., priority 2016, dated 2020).

Target: human TYK2 (JH2domain-pseudokinase) (Homo sapiens (Human), UniProt P29597)
Test: TYK2 JH2 Domain Binding Assay (KINOMEscan, DiscoveRx)
Conditions: 11-point dilution, duplicate
Summary of the method: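 Kd from duplicate 11-point 3-fold dilutions starting at 30,000 nM, fitted by Hill equation with slope fixed at −1. Compounds (final 0.9% DMSO) displace DNA-tagged HEK293-expressed TYK2 JH2 fusion (<0.1 nM) from ligand-coated beads over 1 h at room temperature; eluted kinase read by qPCR.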

Sequence of human TYK2 (JH2domain-pseudokinase) (P29597 556-888): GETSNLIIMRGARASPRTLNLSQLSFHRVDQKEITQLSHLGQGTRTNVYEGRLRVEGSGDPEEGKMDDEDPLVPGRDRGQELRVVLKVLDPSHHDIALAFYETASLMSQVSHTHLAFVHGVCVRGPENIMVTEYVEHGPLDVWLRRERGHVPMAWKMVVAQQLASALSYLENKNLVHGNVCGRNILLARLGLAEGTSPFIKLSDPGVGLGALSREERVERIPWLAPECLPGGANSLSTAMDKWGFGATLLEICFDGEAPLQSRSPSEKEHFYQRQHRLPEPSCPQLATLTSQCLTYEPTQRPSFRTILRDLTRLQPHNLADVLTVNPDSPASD

SMILES	Kd
CS(=O)(=O)c1cc([C@@H]2CCCOC2)ccc1Nc1cc(NC(=O)[C@H]2CC2(F)F)nc2[nH]c(C(F)F)nc12 [I-439, (R)—N-(2-(difluoromethyl)-7-((2-(methylsulfonyl)-4-((S)-tetrahydro-2H-pyran-3-yl)phenyl)amino)-3H-imidazo[4,5-b]pyridin-5-yl)-2,2-difluorocyclopropane-1-carboxamide]	1 to 10 nM
Cc1nc2c(Nc3ccc(-c4cc(C)n(C)n4)cc3N(C)S(C)(=O)=O)cc(NC(=O)C3CC3)nc2[nH]1 [I-193, N-(7-((4-(1,5-dimethyl-1H-pyrazol-3-yl)-2-(N-methylmethylsulfonamido)phenyl)amino)-2-methyl-3H-imidazo[4,5-b]pyridin-5-yl)cyclopropanecarboxamide]	> 10 nM
Cc1nc2c(Nc3ccc(C4=NC(C)(C)CS4)cc3S(C)(=O)=O)cc(NC(=O)C3CC3(F)F)nc2[nH]1 (centres unmarked) [I-346]	> 10 nM
Cc1nc2c(Nc3ccc([C@H]4CCCCO4)cc3S(C)(=O)=O)cc(NC(=O)[C@@H]3CC3(F)F)nc2[nH]1 [I-257, (S)-2,2-difluoro-N-(2-methyl-7-((2-(methylsulfonyl)-4-((R)-tetrahydro-2H-pyran-2-yl)phenyl)amino)-3H-imidazo[4,5-b]pyridin-5-yl)cyclopropane-1-carboxamide]	1 to 10 nM
Cc1nc2c(Nc3ccc(-c4nc(C)sc4C)cc3S(C)(=O)=O)cc(Nc3cnc(C)c(C)n3)nc2[nH]1 [I-581, N5-(5,6-dimethylpyrazin-2-yl)-N7-(4-(2,5-dimethylthiazol-4-yl)-2-(methylsulfonyl)phenyl)-2-methyl-3H-imidazo[4,5-b]pyridine-5,7-diamine]	0.1 to 0.5 nM
Cc1nc2c(Nc3ccc(C4CCC4)cc3P(C)(C)=O)cc(NC(=O)C3CC3)nc2[nH]1 [I-445, N-(7-((4-cyclobutyl-2-(dimethylphosphoryl)phenyl)amino)-2-methyl-3H-imidazo[4,5-b]pyridin-5-yl)cyclopropanecarboxamide]	0.1 to 0.5 nM
Cc1nc2c(Nc3ccc(-c4cnn(C)c4)cc3N(C)S(C)(=O)=O)cc(NC(=O)[C@H]3C[C@@H]3F)nc2[nH]1 [I-372, (1R,2S)-2-fluoro-N-(2-methyl-7-((4-(1-methyl-1H-pyrazol-4-yl)-2-(N-methylmethylsulfonamido)phenyl)amino)-3H-imidazo[4,5-b]pyridin-5-yl)cyclopropane-1-carboxamide]	0.5 to 1 nM
CS(=O)(=O)c1cc([C@H]2CCOC2)ccc1Nc1cc(NC(=O)C2CC2)nc2[nH]c(C(F)F)nc12 [I-453, (R)—N-(2-(difluoromethyl)-7-((2-(methylsulfonyl)-4-(tetrahydrofuran-3-yl)phenyl)amino)-3H-imidazo[4,5-b]pyridin-5-yl)cyclopropanecarboxamide]	0.1 to 0.5 nM
Cc1nc2c(Nc3ccc(C4CCC4)cc3S(C)(=O)=O)cc(NC(=O)[C@@H]3CC3(F)F)nc2[nH]1 [I-411, (S)—N-(7-((4-cyclobutyl-2-(methylsulfonyl)phenyl)amino)-2-methyl-3H-imidazo[4,5-b]pyridin-5-yl)-2,2-difluorocyclopropane-1-carboxamide]	1 to 10 nM
CP(C)(=O)c1cc(C2CCOCC2)ccc1Nc1cc(NC(=O)C2CC2)nc2[nH]c(C(F)F)nc12 [I-408, N-(2-(difluoromethyl)-7-((2-(dimethylphosphoryl)-4-(tetrahydro-2H-pyran-4-yl)phenyl)amino)-3H-imidazo[4,5-b]pyridin-5-yl)cyclopropanecarboxamide]	0.5 to 1 nM
Cc1nc2c(Nc3ccc(C4CC4)cc3N(C)S(C)(=O)=O)cc(NC(=O)C3CC3)nc2[nH]1 [I-184, N-(7-((4-cyclopropyl-2-(N-methylmethylsulfonamido)phenyl)amino)-2-methyl-3H-imidazo[4,5-b]pyridin-5-yl)cyclopropanecarboxamidee]	0.1 to 0.5 nM
Cc1nc2c(Nc3ccc(C4CCC(F)(F)CO4)cc3S(C)(=O)=O)cc(NC(=O)C3CC3)nc2[nH]1 (centres unmarked) [I-572, N-(7-((4-(5,5-difluorotetrahydro-2H-pyran-2-yl)-2-(methylsulfonyl)phenyl)amino)-2-methyl-3H-imidazo[4,5-b]pyridin-5-yl)cyclopropanecarboxamide]	0.1 to 0.5 nM
COCc1ccc(Nc2cc(NC(=O)C3CC3)nc3[nH]c(C)nc23)c(N(C)S(C)(=O)=O)c1 [I-150, N-(7-((4-(methoxymethyl)-2-(N-methylmethylsulfonamido)phenyl)amino)-2-methyl-3H-imidazo[4,5-b]pyridin-5-yl)cyclopropanecarboxamide]	0.1 to 0.5 nM

Next, values leading:

Kd	SMILES
1 to 10 nM	Cc1cc(Nc2cc(Nc3ccc(C4=NC(C)(C)CS4)cc3S(C)(=O)=O)c3nc(C(F)F)[nH]c3n2)nc(C)n1 [I-563, 2-(difluoromethyl)-N7-(4-(4,4-dimethyl-4,5-dihydrothiazol-2-yl)-2-(methylsulfonyl)phenyl)-N5-(2,6-dimethylpyrimidin-4-yl)-3H-imidazo[4,5-b]pyridine-5,7-diamine]
0.1 to 0.5 nM	Cc1cc(Nc2cc(Nc3ccc(C4CC4)cc3S(C)(=O)=O)c3nc(C(F)F)[nH]c3n2)nc(C)n1 [I-416, N7-(4-cyclopropyl-2-(methylsulfonyl)phenyl)-2-(difluoromethyl)-N5-(2,6-dimethylpyrimidin-4-yl)-3H-imidazo[4,5-b]pyridine-5,7-diamine]
1 to 10 nM	COc1c(Nc2cc(Nc3ccc4c(n3)CCOC4)nc3[nH]c(C(F)F)nc23)cccc1-c1ncnn1C [I-645]
< 0.1 nM	C#Cc1cccc(Nc2cc(Nc3ccc(F)cc3S(C)(=O)=O)c3nc(C)[nH]c3n2)n1 [I-630, N5-(6-ethynylpyridin-2-yl)-N7-(4-fluoro-2-(methylsulfonyl)phenyl)-2-methyl-3H-imidazo[4,5-b]pyridine-5,7-diamine]
1 to 10 nM	COc1cc(-c2cncn2C)ccc1Nc1cc(NC(=O)C2CC2)nc2[nH]c(C(F)F)nc12 [I-142, N-(2-(difluoromethyl)-7-((2-methoxy-4-(1-methyl-1H-imidazol-5-yl)phenyl)amino)-3H-imidazo[4,5-b]pyridin-5-yl)cyclopropanecarboxamide]
< 0.1 nM	COCc1ccc(Nc2cc(Nc3ccccc3S(C)(=O)=O)c3nc(C)[nH]c3n2)nn1 [I-521]
0.1 to 0.5 nM	Cc1cc(Nc2cc(Nc3ccc(-c4ccn(C5CC5)n4)cc3S(C)(=O)=O)c3nc(C(F)F)[nH]c3n2)nc(C)n1 [I-527]
> 10 nM	COc1c(Nc2cc(NC(=O)C3CC3)nc3[nH]c(C(F)F)nc23)cccc1-n1cnc(C)n1 [I-51, N-(2-(difluoromethyl)-7-((2-methoxy-3-(3-methyl-1H-1,2,4-triazol-1-yl)phenyl)amino)-3H-imidazo[4,5-b]pyridin-5-yl)cyclopropanecarboxamide]
0.5 to 1 nM	COc1c(Nc2cc(Nc3ccc(NCCCCl)c(C#N)n3)nc3[nH]c(C(F)F)nc23)cccc1-c1nnn(C)n1 [I-46, 3-((3-chloropropyl)amino)-6-((2-(difluoromethyl)-7-((2-methoxy-3-(2-methyl-2H-tetrazol-5-yl)phenyl)amino)-3H-imidazo[4,5-b]pyridin-5-yl)amino)picolinonitrile]
0.1 to 0.5 nM	COc1c(Nc2cc(Nc3ccc(C)nn3)nc3[nH]c(C(F)F)nc23)cccc1-c1ccn(C)n1 [I-26, 2-(difluoromethyl)-N7-(2-methoxy-3-(1-methyl-1H-pyrazol-3-yl)phenyl)-N5-(6-methylpyridazin-3-yl)-3H-imidazo[4,5-b]pyridine-5,7-diamine]
